Experimental findings from patent US12448369B2 (Edgewise Therapeutics, Inc., priority 2023, dated 2025) are described below.

In test [1] the test system is Porcine atria myofibrils (atrial myosin ATPase). Description: Myofibril ATPase assay, porcine atria myofibrils. Format: biochemical. In outline: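 Atrial myofibril ATPase measured by NADH-coupled absorbance at 340 nm; vehicle-normalized slopes fitted to give Y75 or Y125 values.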
For test [2], the system named is Rabbit Psoas myofibrils (skeletal myosin ATPase). Kind of test: Myofibril ATPase assay, rabbit psoas (skeletal) myofibrils. It counts as biochemical. A digest of the protocol:
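Values derive from concentration–response fits of NADH consumption rates at 340 nm, normalized to vehicle-only wells, as Y75 or Y125. Myofibril ATP turnover was linked to NADH via PK/LDH in Ca/EGTA-buffered PIPES, pH 7.0, and read over 75 min.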

In test [3] the target is T1, Porcine ventricle myofibrils (ventricular myosin ATPase) (Sus scrofa, UniProt P79293).
T1 construct: Myofibrils from porcine cardiac muscle was isolated from the left ventricle of Yucatan minipigs; tissue Exemplar Genetics; host or cells: left ventricle of Yucatan minipigs, myofibrils prepared in house
T1 sequence (P79293 whole entry): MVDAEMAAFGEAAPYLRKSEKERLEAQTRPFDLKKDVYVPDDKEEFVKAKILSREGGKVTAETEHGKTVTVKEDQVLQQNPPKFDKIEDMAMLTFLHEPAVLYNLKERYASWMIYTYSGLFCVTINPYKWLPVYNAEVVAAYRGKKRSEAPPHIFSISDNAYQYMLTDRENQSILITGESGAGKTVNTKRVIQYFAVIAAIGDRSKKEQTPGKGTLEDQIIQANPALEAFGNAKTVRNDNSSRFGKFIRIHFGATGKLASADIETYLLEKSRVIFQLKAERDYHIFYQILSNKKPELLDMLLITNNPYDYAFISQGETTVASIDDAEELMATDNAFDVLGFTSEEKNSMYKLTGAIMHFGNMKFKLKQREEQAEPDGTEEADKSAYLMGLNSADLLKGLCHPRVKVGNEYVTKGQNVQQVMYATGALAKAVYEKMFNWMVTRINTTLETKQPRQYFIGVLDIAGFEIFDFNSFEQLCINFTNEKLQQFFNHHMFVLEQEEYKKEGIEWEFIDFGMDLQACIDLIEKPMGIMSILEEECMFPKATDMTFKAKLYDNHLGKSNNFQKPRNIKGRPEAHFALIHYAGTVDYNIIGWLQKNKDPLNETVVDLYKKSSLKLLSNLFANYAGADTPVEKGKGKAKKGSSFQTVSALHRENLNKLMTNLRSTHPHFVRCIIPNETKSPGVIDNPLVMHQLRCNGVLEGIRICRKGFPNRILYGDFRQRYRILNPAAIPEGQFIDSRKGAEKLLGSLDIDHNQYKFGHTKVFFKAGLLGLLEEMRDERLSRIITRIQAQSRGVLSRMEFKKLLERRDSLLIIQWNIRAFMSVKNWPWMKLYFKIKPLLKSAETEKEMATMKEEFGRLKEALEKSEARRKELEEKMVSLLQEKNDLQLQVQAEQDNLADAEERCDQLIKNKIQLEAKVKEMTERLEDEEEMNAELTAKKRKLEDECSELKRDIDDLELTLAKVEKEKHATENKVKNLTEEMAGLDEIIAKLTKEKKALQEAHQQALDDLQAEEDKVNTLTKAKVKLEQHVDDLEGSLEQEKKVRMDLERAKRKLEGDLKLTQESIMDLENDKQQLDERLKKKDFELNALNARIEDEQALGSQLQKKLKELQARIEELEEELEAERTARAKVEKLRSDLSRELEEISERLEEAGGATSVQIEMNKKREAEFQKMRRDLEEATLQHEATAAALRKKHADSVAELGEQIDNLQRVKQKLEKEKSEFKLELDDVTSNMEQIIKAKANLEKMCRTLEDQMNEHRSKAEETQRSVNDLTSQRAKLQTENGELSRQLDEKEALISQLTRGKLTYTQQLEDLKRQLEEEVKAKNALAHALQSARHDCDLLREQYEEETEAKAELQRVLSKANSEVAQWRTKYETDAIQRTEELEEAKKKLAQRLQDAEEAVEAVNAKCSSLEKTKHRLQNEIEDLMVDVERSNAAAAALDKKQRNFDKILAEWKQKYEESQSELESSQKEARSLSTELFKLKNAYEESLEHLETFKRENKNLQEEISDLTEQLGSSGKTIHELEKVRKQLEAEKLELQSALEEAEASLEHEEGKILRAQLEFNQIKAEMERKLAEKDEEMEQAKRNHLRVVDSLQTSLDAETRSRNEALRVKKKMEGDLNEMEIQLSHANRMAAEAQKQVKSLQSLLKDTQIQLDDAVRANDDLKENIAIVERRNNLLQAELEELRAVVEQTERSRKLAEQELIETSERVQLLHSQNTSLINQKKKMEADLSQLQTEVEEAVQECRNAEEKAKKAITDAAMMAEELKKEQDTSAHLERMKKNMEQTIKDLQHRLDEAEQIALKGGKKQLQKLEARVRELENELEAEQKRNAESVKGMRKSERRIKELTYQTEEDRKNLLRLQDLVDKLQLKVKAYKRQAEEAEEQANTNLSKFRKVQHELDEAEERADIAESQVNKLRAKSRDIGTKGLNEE
Description: Myofibril ATPase assay, porcine ventricle myofibrils. It counts as biochemical, porcine (Yucatan minipigs). A digest of the protocol:
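Test compounds acted on myofibrils isolated from the left ventricle of Yucatan minipigs. ADP formation was coupled via pyruvate kinase/lactate dehydrogenase to NADH oxidation, monitored kinetically at 340 nm over 75 min. Rates relative to vehicle were fitted with a 4-parameter logistic model, reported as Y75 (25% inhibition) or Y125 (activation) concentrations.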

Where [4] appears, read: Y75 value (no ‡ mark), porcine atria myofibrils.
Where [5] appears, read: Y75 value (no ‡ mark), rabbit psoas myofibrils.
Setting [6] is: Y75 value (no ‡ mark), porcine ventricle myofibrils.
The mark [7] stands for this setting: porcine atria myofibrils, Y75 value (75% activity relative to no compound).
Setting [8] is: rabbit psoas myofibrils, Y75 value.
[9] abbreviates: porcine ventricle myofibrils, Y75 value.

In the case of `COc1ccc2[nH]c(=O)c(CC(=O)N[C@@H](C)c3ccc(F)cc3F)cc2c1C` [compound 92], the “Atrial EC25” value in test [1] (setting [4]) worked out at 29940 nM. Further, in test [2] (setting [5]), the “Skeletal EC25” value was 2.83 µM. Also, in test [3] (setting [6]), the “Ventricular EC25” value worked out at 100000 nM.
In the case of `Cc1c([C@@H](C)C(=O)N[C@@H](C)c2ccc(F)cc2F)c(=O)[nH]c2ccnc(OC(F)(F)F)c12` (single isomer, unassigned) [compound 347], the “Atrial EC25” value in test [1] (setting [7]) turned out to be 940 nM. For the same molecule, the “Skeletal EC25” value in test [2] (setting [8]) was 0.35 µM. For the same molecule, the “Ventricular EC25” value in test [3] (setting [9]) is 20360 nM.
For `C#Cc1nccc2[nH]c(=O)c(CC(=O)N[C@@H](C)c3ccc(F)cc3F)cc12` [compound 431], in that order: 11130 nM, 0.80 µM and 50880 nM.
Taken in the same sequence, the figures for `Cc1c(CC(=O)N[C@@H](C)c2ccc(C#N)cc2F)c(=O)[nH]c2ccnc(OC3CC3)c12` [compound 202] were 110 nM, 0.11 µM and 830 nM.
With `Cc1nccc2[nH]c(=O)c(CC(=O)N[C@@H](C)c3ccccn3)c(C)c12` (single isomer, unassigned) [compound 325], in test [1] (setting [7]), the “Atrial EC25” value was determined as 100000 nM. Further, the “Skeletal EC25” value in test [2] (setting [8]) worked out at 1.57 µM. Also, the “Ventricular EC25” value in test [3] (setting [9]) worked out at 100000 nM.
As for `Cc1c(CC(=O)N[C@H](C)c2ncc(C#N)cn2)c(=O)[nH]c2ccc(F)c(Cl)c12` (single isomer, unassigned) [compound 2055], in test [1] (setting [4]), the “Atrial EC25” value was 60 nM. Also, the “Skeletal EC25” value in test [2] (setting [5]) was 0.11 µM. The “Ventricular EC25” value in test [3] (setting [6]) amounted to 260 nM.
For the molecule `C[C@@H](NC(=O)C1(c2cc3cc(F)ccc3[nH]c2=O)CC1)c1cc(C#N)ccn1` (single isomer, unassigned) [compound 2536], the “Atrial EC25” value in test [1] (setting [4]) stood at 30590 nM. The “Skeletal EC25” value in test [2] (‡ Y125 value, not a Y75 value (125% activity relative to no compound), rabbit psoas myofibrils) is listed as 77.37‡ μM. In addition, the “Ventricular EC25” value in test [3] (setting [6]) came out at 100000 nM.
Take `C[C@H](NC(=O)Cc1c(C2CC2)c2cc(F)ccc2[nH]c1=O)c1ccc(C#N)nn1` (single isomer, unassigned) [compound 2054]: the “Atrial EC25” value in test [1] (setting [4]) is 230 nM. In addition, in test [2] (setting [5]), the “Skeletal EC25” value came to 0.15 µM. In test [3] (setting [6]), the “Ventricular EC25” value was 3720 nM.
Consider `Cc1nccc2[nH]c(=O)c(CC(=O)N[C@@H](CO)c3ccncc3)c(C)c12` [compound 293], for which the “Atrial EC25” value in test [1] (setting [7]) worked out at 100000 nM. The “Skeletal EC25” value in test [2] (setting [8]) came out at 73.40 µM. In addition, the “Ventricular EC25” value in test [3] (setting [9]) is 100000 nM.
`C[C@@H](NC(=O)Cc1cc2c(C(F)(F)F)c(F)ccc2[nH]c1=O)c1ncc(C#N)cn1` (single isomer, unassigned) [compound 2009]: in test [1] (setting [4]), the “Atrial EC25” value came out at 100000 nM. In addition, in test [2] (setting [5]), the “Skeletal EC25” value came out at 2.25 µM. The “Ventricular EC25” value in test [3] (setting [6]) was 100000 nM.
On to `CC(NC(=O)Cc1cc2c(F)c(F)ccc2[nH]c1=O)c1nc(C#N)cs1` (single isomer, unassigned) [compound 4009, N-(1-(4-cyanothiazol-2-yl)ethyl)-2-(5,6-difluoro-2-oxo-1,2-dihydroquinolin-3-yl)acetamide], for which the “Atrial EC25” value in test [1] (Y75 value: concentration required to reduce myosin ATP-ase activity by 25%, Porcine Atria Prep pCa 25 GEOM_MEAN) came out at 2280 nM. Besides, in test [2] (Y75 value: concentration required to reduce myosin ATP-ase activity by 25%, Rabbit Psoas Prep pCa 25 GEOM_MEAN), the “Skeletal EC25” value turned out to be 1.49 µM. The “Ventricular EC25” value in test [3] (Y75 value: concentration required to reduce myosin ATP-ase activity by 25%, Porcine Ventricle Prep pCa 25 GEOM_MEAN) worked out at 910 nM.
On to `Cc1cc(C#N)ncc1[C@@H](C)NC(=O)Cc1c(C)c2c(C)c(F)ccc2[nH]c1=O` [compound 1044], for which the “Atrial EC25” value in test [1] (setting [4]) worked out at 60 nM. Moreover, in test [2] (setting [5]), the “Skeletal EC25” value was found to be 0.02 µM. In test [3] (setting [6]), the “Ventricular EC25” value was determined as 100 nM.
As to `Cc1cccc([C@@H](CO)NC(=O)Cc2c(C)c3c(C)nccc3[nH]c2=O)c1` (single isomer, unassigned) [compound 294], the “Atrial EC25” value in test [1] (setting [7]) was 100000 nM. For the same molecule, the “Skeletal EC25” value in test [2] (setting [8]) amounted to 100.00 µM. In addition, the “Ventricular EC25” value in test [3] (setting [9]) worked out at 100000 nM.
As to `Cc1ccc2[nH]c(=O)c(CC(=O)N[C@@H](C)c3ncc(C#N)cc3F)c(C)c2n1` [compound 469], the “Atrial EC25” value in test [1] (setting [7]) turned out to be 150 nM. In addition, the “Skeletal EC25” value in test [2] (setting [8]) stood at 0.55 µM. Also, in test [3] (setting [9]), the “Ventricular EC25” value worked out at 1660 nM.
With `Cc1c(CC(=O)N[C@@H](C)c2ncc(C#N)cc2F)c(=O)[nH]c2cc(F)c(F)cc12` [compound 1105], the “Atrial EC25” value in test [1] (setting [4]) amounted to 100000 nM. Further, the “Skeletal EC25” value in test [2] (setting [5]) was determined as 1.36 µM. Further, the “Ventricular EC25” value in test [3] (setting [6]) worked out at 4470 nM.
As for `Cc1c(C(F)(F)C(=O)N[C@H](C)c2ncc(C#N)cc2F)c(=O)[nH]c2ccc(F)cc12` (single isomer, unassigned) [compound 2606], the “Atrial EC25” value in test [1] (setting [4]) was found to be 80 nM. For the same molecule, the “Skeletal EC25” value in test [2] (setting [5]) was found to be 0.10 µM. The “Ventricular EC25” value in test [3] (setting [6]) turned out to be 770 nM.
As to `Cc1c(F)ccc2[nH]c(=O)c(CC(=O)N[C@H](C)c3ccc(C#N)cc3F)c(O)c12` [compound 19], the “Atrial EC25” value in test [1] (setting [4]) came out at 100000 nM. Besides, the “Skeletal EC25” value in test [2] (setting [5]) came to 2.92 µM. Also, the “Ventricular EC25” value in test [3] (setting [6]) was 1010 nM.
With `Cc1c(CC(=O)N[C@@H](C)c2ccc(C#N)cc2F)c(=O)[nH]c2ccnc(C(F)(F)F)c12` [compound 162], the “Atrial EC25” value in test [1] (setting [7]) was 130 nM. Moreover, in test [2] (setting [8]), the “Skeletal EC25” value was found to be 0.02 µM. In addition, in test [3] (setting [9]), the “Ventricular EC25” value was found to be 110 nM.
In the case of `C[C@@H](NC(=O)Cc1c(C2CC2)c2cc(F)ccc2[nH]c1=O)c1ccc(C#N)nn1` (single isomer, unassigned) [compound 2053], the “Atrial EC25” value in test [1] (setting [4]) turned out to be 100000 nM. In addition, in test [2] (setting [5]), the “Skeletal EC25” value was 12.45 µM. Moreover, the “Ventricular EC25” value in test [3] (setting [6]) is 100000 nM.
For `Cc1c(CC(=O)N[C@@H](C)c2ncc(C#N)cn2)c(=O)[nH]c2ccc(F)c(C#N)c12` (single isomer, unassigned) [compound 2016], the “Atrial EC25” value in test [1] (setting [4]) stood at 120 nM. Also, the “Skeletal EC25” value in test [2] (setting [5]) came out at 0.05 µM. Further, the “Ventricular EC25” value in test [3] (setting [6]) came out at 290 nM.
As to `C[C@H](NC(=O)Cc1cc2nc(O)ccc2[nH]c1=O)c1ccc(F)cc1F` [compound 300], in test [1] (setting [7]), the “Atrial EC25” value was found to be 100000 nM. For the same molecule, the “Skeletal EC25” value in test [2] (setting [8]) was 100.00 µM. The “Ventricular EC25” value in test [3] (setting [9]) was determined as 100000 nM.
For the molecule `N#Cc1cnc2c(n1)CC[C@H]2NC(=O)Cc1cc2cc(F)c(F)cc2[nH]c1=O` [compound 1082], the “Atrial EC25” value in test [1] (setting [4]) came to 100000 nM. Moreover, the “Skeletal EC25” value in test [2] (setting [5]) came out at 100.00 µM. Also, the “Ventricular EC25” value in test [3] (setting [6]) was found to be 100000 nM.
As for `C[C@H](NC(=O)[C@@H](C)c1cc2c(C3CC3)nccc2[nH]c1=O)c1ccc(F)cc1F` (single isomer, unassigned) [compound 356], the “Atrial EC25” value in test [1] (setting [7]) was found to be 100000 nM. For the same molecule, in test [2] (setting [8]), the “Skeletal EC25” value is 157.50 µM. Further, in test [3] (setting [9]), the “Ventricular EC25” value came out at 100000 nM.
Consider `C[C@@H](NC(=O)Cc1c(C(F)(F)F)c2c(C3CC3)nccc2[nH]c1=O)c1ncc(C#N)cn1` (single isomer, unassigned) [compound 3001], for which the “Atrial EC25” value in test [1] (setting [7]) came to 1250 nM. The “Skeletal EC25” value in test [2] (setting [8]) is 4.13 µM. In test [3] (setting [9]), the “Ventricular EC25” value turned out to be 17650 nM.
`Cc1c(F)ccc2[nH]c(=O)c(CC(=O)N[C@H](C)c3ncc(F)cc3F)c(C#N)c12` [compound 1147]: the “Atrial EC25” value in test [1] (setting [4]) turned out to be 2840 nM. Moreover, the “Skeletal EC25” value in test [2] (setting [5]) is 1.01 µM. Further, in test [3] (setting [6]), the “Ventricular EC25” value was 940 nM.
For `C[C@@H](NC(=O)Cc1c(C2CC2)c2cc(C#N)ccc2[nH]c1=O)c1ncc(C#N)cc1F` [compound 1151], in that order: 21520 nM, 10.08 µM and 21670 nM.
